ChEMBL document CHEMBL5346877, “A-ring-fused pyrazoles of dihydrotestosterone targeting prostate cancer cells via the downregulation of the androgen receptor” (Eur J Med Chem, 2023)
Active and inactive are the calls of the source. The rule behind the calls is not given here.

Assays:
CWR22R [1] = experiment: Cytotoxicity against human 22Rv1 cells assessed as cell viability at 20 uM incubated for 72 hrs by resazurin dye based microplate reader assay; type: functional; conditions: read-out: Activity
DU-145 [2] = experiment: Cytotoxicity against human DU-145 cells assessed as cell viability at 20 uM incubated for 72 hrs by resazurin dye based microplate reader assay; type: functional; conditions: read-out: Activity
LAPC4 [3] = experiment: Inhibition of colony formation in human LAPC4 cells at 5 uM incubated for 10 days by crystal violet staining based assay; type: functional, cell-based; conditions: time 10.0 day
[4] = biological target: T1, Androgen receptor (Homo sapiens) (UniProt P10275); experiment: Antagonist activity at AR in human LAPC4 cells assessed as reduction in PSA expression at 10 uM incubated for 24 hrs in presence of R1881 by Western blotting analysis; type: cell-based; conditions: filed as antagonist
T1 sequence (whole entry): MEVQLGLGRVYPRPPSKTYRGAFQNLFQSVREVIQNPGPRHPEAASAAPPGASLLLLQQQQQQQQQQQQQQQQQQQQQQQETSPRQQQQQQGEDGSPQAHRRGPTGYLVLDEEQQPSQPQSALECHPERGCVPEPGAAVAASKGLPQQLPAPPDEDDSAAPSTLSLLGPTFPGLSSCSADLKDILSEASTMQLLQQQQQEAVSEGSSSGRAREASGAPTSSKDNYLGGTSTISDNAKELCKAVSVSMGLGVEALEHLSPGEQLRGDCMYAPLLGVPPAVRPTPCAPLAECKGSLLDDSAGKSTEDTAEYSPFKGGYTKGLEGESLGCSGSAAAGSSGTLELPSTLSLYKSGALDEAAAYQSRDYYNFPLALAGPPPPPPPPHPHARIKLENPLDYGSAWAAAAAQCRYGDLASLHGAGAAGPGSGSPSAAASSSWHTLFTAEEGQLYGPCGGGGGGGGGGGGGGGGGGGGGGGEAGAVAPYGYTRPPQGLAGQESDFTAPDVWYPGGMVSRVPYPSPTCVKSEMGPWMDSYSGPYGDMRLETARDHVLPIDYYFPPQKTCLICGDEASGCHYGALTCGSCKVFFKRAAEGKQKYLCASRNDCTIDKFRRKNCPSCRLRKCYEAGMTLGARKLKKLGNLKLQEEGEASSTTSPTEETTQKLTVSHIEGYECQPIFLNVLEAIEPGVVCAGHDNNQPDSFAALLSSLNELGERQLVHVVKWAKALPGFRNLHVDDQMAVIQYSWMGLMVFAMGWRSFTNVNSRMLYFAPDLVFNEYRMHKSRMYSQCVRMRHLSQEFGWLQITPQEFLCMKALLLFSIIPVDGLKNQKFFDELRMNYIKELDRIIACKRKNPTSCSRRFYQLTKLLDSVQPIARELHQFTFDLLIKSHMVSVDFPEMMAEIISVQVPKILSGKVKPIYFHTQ

LAPC4 [5] = experiment: Inhibition of colony formation in human LAPC4 cells at 10 uM incubated for 10 days by crystal violet staining based assay; type: functional; conditions: LAPC4, 240 h, time 10 day
LAPC4 [6] = experiment: Cytotoxicity against human LAPC4 cells assessed as cell viability at 20 uM incubated for 72 hrs by resazurin dye based microplate reader assay; type: functional; conditions: read-out: Activity
[7] = biological target: T1, Androgen receptor (Homo sapiens); experiment: Antagonist activity at AR in human LAPC4 cells assessed as reduction in Nkx3.1 expression at 10 uM incubated for 24 hrs in presence of R1881 by Western blotting analysis; type: cell-based; conditions: filed as antagonist
[8] = biological target: T1, Androgen receptor (Homo sapiens); experiment: Antagonist activity at AR transcription in human 22Rv1 cells assessed as reduction in PSA mRNA expression at 10 uM incubated for 24 hrs in presence of R1881 by qPCR analysis; type: cell-based; conditions: filed as antagonist
LAPC4 [9] = experiment: Induction of apoptosis in human LAPC4 cells assessed as PARP-1 expression at 2 to 10 uM incubated for 48 to 72 hrs; type: functional, cell-based; conditions: dose 2-10 µM, time 48-72 hrs
[10] = biological target: T1, Androgen receptor (Homo sapiens); experiment: Binding affinity to His6 tagged recombinant human AR LBD expresssed in Escherichia coli BL21(DE3) cells by MST assay; conditions: filed as antagonist
DU-145 [11] = experiment: Induction of cell cycle arrest in human DU-145 cells assessed as reduction S phase cells incubated for 48 hrs; type: functional, cell-based
[12] = biological target: T1, Androgen receptor (Homo sapiens); experiment: Antagonist activity at AR in human LNCaP-abl cells assessed as reduction in PSA expression at 10 uM incubated for 24 hrs in presence of R1881 by Western blotting analysis; type: cell-based; conditions: filed as antagonist
LAPC4 [13] = experiment: Induction of apoptosis in human LAPC4 cells assessed as cleaved caspase-3 expression at 2 to 10 uM incubated for 48 to 72 hrs; type: functional, cell-based; conditions: dose 2-10 µM, time 48-72 hrs
LAPC4 [14] = experiment: Antiproliferative activity against human LAPC4 cells; type: functional; conditions: time 72 hrs
[15] = biological target: T1, Androgen receptor (Homo sapiens); experiment: Antagonist activity at AR in human LAPC4 cells incubated for 24 hrs in presence of R1881 by Western blotting analysis; type: cell-based; conditions: filed as antagonist, dose 1.25-10 µM
LAPC4 [16] = experiment: Antiproliferative activity against human LAPC4 cells assessed as viable cells at 2 to 10 uM incubated for 24 to 48 hrs by resazurin dye based assay; type: functional; conditions: dose 2-10 µM, time 24-48 hrs
LAPC4 [17] = experiment: Induction of apoptosis in human LAPC4 cells assessed as cleaved caspase-7 expression at 2 to 10 uM incubated for 48 to 72 hrs; type: functional, cell-based; conditions: dose 2-10 µM, time 48-72 hrs
[18] = biological target: T1, Androgen receptor (Homo sapiens); experiment: Antagonist activity at AR transcription in human LAPC4 cells assessed as reduction in PSA mRNA expression at 10 uM incubated for 24 hrs in presence of R1881 by qPCR analysis; type: cell-based; conditions: filed as antagonist
LAPC4 [19] = experiment: Antiproliferative activity against human LAPC4 cells assessed as decrease in […] at 2 to 10 uM incubated for 24 to 72 hrs by resazurin dye based assay; type: functional, cell-based; conditions: dose 2-10 µM, time 24-72 hrs
Androgen receptor = biological target: T2, Androgen receptor (Homo sapiens, UniProt P10275); experiment: Antagonist activity at AR transcription in human 22Rv1 cells incubated for 24 hrs in presence of R1881; type: cell-based
T2 sequence (P10275 whole entry): T1 sequence (whole entry)

[20] = biological target: T1, Androgen receptor (Homo sapiens); experiment: Antagonist activity at AR in human 22Rv1 cells incubated for 24 hrs in presence of R1881 by Western blotting analysis; type: cell-based; conditions: filed as antagonist
[21] = biological target: T1, Androgen receptor (Homo sapiens); experiment: Antagonist activity at AR transcription in human LAPC4 cells assessed as reduction in AR mRNA expression at 10 uM incubated for 24 hrs in presence of R1881 by qPCR analysis; type: cell-based; conditions: filed as antagonist
[22] = biological target: T1, Androgen receptor (Homo sapiens); experiment: Antagonist activity at AR in human LNCaP cells assessed as reduction in Nkx3.1 expression at 2 to 10 uM incubated for 72 hrs by Western blotting analysis; type: cell-based; parameters: scale not given: the % may be the effect or the level left; conditions: filed as antagonist, dose 2-10 µM
LAPC4 [23] = experiment: Induction of cell cycle arrest in human LAPC4 cells assessed as reduction S phase cells incubated for 48 hrs; type: functional, cell-based
[24] = biological target: T1, Androgen receptor (Homo sapiens); experiment: Antagonist activity at AR in human LNCaP-abl cells assessed as reduction in phosphorylation at S81 at 10 uM incubated for 24 hrs in presence of R1881 by Western blotting analysis; type: cell-based; conditions: filed as antagonist
LAPC4 [25] = experiment: Reversal of AR degradation in human LAPC4 cells at 10 to 20 uM preincubated for 1 hr followed by bav-degalutamide addition and measured after 4 hrs; type: functional, cell-based; conditions: dose 10-20 µM, time 5.0 hrs
[26] = biological target: T1, Androgen receptor (Homo sapiens); experiment: Antagonist activity at AR in human LNCaP cells incubated for 24 hrs in presence of R1881 by Western blotting analysis; type: cell-based; conditions: filed as antagonist
[27] = biological target: T1, Androgen receptor (Homo sapiens); experiment: Antagonist activity at AR in human LNCaP cells assessed as reduction in PSA expression at 2 to 10 uM incubated for 72 hrs by Western blotting analysis; type: cell-based; parameters: scale not given: the % may be the effect or the level left; conditions: filed as antagonist, dose 2-10 µM
CWR22R [28] = experiment: Induction of cell cycle arrest in human 22Rv1 cells assessed as reduction S phase cells incubated for 48 hrs; type: functional, cell-based
[29] = Downregulation of AR protein expression in human LAPC4 cells assessed as AR levels at 10 uM incubated for 24 hrs by immunoblotting analysis; type: functional

In the case of `Cc1c2c(nn1-c1ccccc1)C[C@@H]1CC[C@@H]3[C@H](CC[C@]4(C)[C@@H](O)CC[C@@H]34)[C@@]1(C)C2`, the viability at 20 µM (CWR22R [1]) is reported as 24%, the viability at 20 µM (DU-145 [2]) is reported as 97% and the inhibition (LAPC4 [3]) is reported as “Active”. The Activity [4] was “Active”, the inhibition at 10 µM (LAPC4 [5]) was 1% and the viability at 20 µM (LAPC4 [6]) was 65%. The Activity [7] was “Active”.
In the case of `Cc1c2c(nn1-c1ccc(F)cc1)C[C@@H]1CC[C@@H]3[C@H](CC[C@]4(C)[C@@H](O)CC[C@@H]34)[C@@]1(C)C2`, the Activity [8] is reported as “Active”, the viability at 20 µM (CWR22R [1]) is reported as 26% and the Activity (LAPC4 [9]) is reported as “Active”. For the same compound, the Activity [10] was “Active”, the Activity (DU-145 [11]) was “inactive” and the viability at 20 µM (DU-145 [2]) was at least 100%. For the same compound, the Activity [12] was “Active”, the Activity (LAPC4 [13]) was “Active” and the inhibition (LAPC4 [3]) was “Active”. For the same compound, the GI50 (LAPC4 [14]) was 7.9 µM, the Activity [4] was “Active” and the Activity [15] was “Dose-Dependent Effect”. The Activity (LAPC4 [16]) was over 80%, the Activity (LAPC4 [17]) was “Active” and the Activity [18] was “Active”. The inhibition at 10 µM (LAPC4 [5]) was 3%, the viability at 20 µM (LAPC4 [6]) was 38% and the Activity (LAPC4 [19]) was “Active”. The IC50 (Androgen receptor) was 1.18 µM, the Activity [7] was “Active” and the Activity [20] was “Dose-Dependent Effect”. For the same compound, the Activity [21] was “Active”, the Activity [22] was 100% and the Activity (LAPC4 [23]) was “Active”. The Activity [24] was “Active”, the Activity (LAPC4 [25]) was “Active” and the Activity [26] was “Dose-Dependent Effect”. The Activity [27] was 100% and the Activity (CWR22R [28]) was “Active”.
In the case of `Cc1c2c(nn1-c1ccc(C#N)cc1)C[C@@H]1CC[C@@H]3[C@H](CC[C@]4(C)C(=O)CC[C@@H]34)[C@@]1(C)C2`, the viability at 20 µM (CWR22R [1]) is reported as 87%, the viability at 20 µM (DU-145 [2]) is reported as at least 100% and the Activity [12] is reported as “Active”. For the same compound, the inhibition (LAPC4 [3]) was “Active”, the inhibition at 10 µM (LAPC4 [5]) was 29% and the viability at 20 µM (LAPC4 [6]) was 78%. The Activity [24] was “Active”.
Compound `Cn1nc2c(c1-c1cccs1)C[C@@]1(C)[C@@H](CC[C@@H]3[C@@H]1CC[C@]1(C)[C@@H](O)CC[C@@H]31)C2` has a viability at 20 µM (CWR22R [1]) of 44%, a viability at 20 µM (DU-145 [2]) of 100% and an Activity [29] of 87%. The inhibition (LAPC4 [3]) was “Active”, the Activity [4] was “Active” and the inhibition at 10 µM (LAPC4 [5]) was 1%. For the same compound, the viability at 20 µM (LAPC4 [6]) was 46% and the Activity [7] was “Active”.
`Cn1nc2c(c1-c1ccco1)C[C@@]1(C)[C@@H](CC[C@@H]3[C@@H]1CC[C@]1(C)[C@@H](O)CC[C@@H]31)C2` gave a viability at 20 µM (CWR22R [1]) of 18%, a viability at 20 µM (DU-145 [2]) of 100% and an Activity [29] of 78%. The inhibition (LAPC4 [3]) was “Active”, the Activity [4] was “Active” and the inhibition at 10 µM (LAPC4 [5]) was 2%. For the same compound, the viability at 20 µM (LAPC4 [6]) was 50% and the Activity [7] was “Active”.
`Cn1nc2c(c1-c1ccc(Br)cc1)C[C@@]1(C)[C@@H](CC[C@@H]3[C@@H]1CC[C@]1(C)C(=O)CC[C@@H]31)C2` gave a viability at 20 µM (CWR22R [1]) of 56%, a viability at 20 µM (DU-145 [2]) of 96% and an Activity [29] of 49%. The inhibition (LAPC4 [3]) was “Active”, the Activity [4] was “Active” and the inhibition at 10 µM (LAPC4 [5]) was 15%. For the same compound, the viability at 20 µM (LAPC4 [6]) was 20% and the Activity [7] was “Active”.
